Results reported in patent US6239171A, “Tocotrienols and tocotrienol-like compounds and methods for their use” (Lipogenics, Inc., priority 1998, dated 2001).

Key:
[1] = test system: hypercholesterolemic swine; assay: Total cholesterol, triglyceride and glucose concentrations in tissues of hypercholesterolemic swine; assay type: in vivo
Procedure: Each group of three 5-month old swine was administered either a control diet or a control diet supplemented with 50 ppm of TRF or 50 ppm of an individual tocotrienol. […] After a 12 hour fast, serum and plasma samples were taken a 0 hrs, 21 days and 42 days from the start of the feeding period. After taking serum and plasma samples from the pigs at the end of the 42 day period, all of the swine were fasted for a total of 40 hours, followed by a 48 hour refeeding period. One swine from each group was sacrificed at that time and the liver, intestine, lung, heart, loin muscle, adipose tissue and ham muscle were removed.
We next determined the effect of tocotrienols on the total cholesterol, triglyceride and glucose concentrations in various tissues of hypercholesterolemic swine.

HMG-CoA reductase = target: T1, HMG-CoA reductase (Homo sapiens, UniProt P04035); assay: Hepatic HMG-CoA reductase activity in chickens fed supplemented diets; assay type: in vivo, chicken; settings: 4 weeks
T1 construct: hepatocytes isolated from livers of 8-week old female chickens; endogenous in cells; host or cells: primary chicken hepatocytes
T1 sequence (P04035 1-888): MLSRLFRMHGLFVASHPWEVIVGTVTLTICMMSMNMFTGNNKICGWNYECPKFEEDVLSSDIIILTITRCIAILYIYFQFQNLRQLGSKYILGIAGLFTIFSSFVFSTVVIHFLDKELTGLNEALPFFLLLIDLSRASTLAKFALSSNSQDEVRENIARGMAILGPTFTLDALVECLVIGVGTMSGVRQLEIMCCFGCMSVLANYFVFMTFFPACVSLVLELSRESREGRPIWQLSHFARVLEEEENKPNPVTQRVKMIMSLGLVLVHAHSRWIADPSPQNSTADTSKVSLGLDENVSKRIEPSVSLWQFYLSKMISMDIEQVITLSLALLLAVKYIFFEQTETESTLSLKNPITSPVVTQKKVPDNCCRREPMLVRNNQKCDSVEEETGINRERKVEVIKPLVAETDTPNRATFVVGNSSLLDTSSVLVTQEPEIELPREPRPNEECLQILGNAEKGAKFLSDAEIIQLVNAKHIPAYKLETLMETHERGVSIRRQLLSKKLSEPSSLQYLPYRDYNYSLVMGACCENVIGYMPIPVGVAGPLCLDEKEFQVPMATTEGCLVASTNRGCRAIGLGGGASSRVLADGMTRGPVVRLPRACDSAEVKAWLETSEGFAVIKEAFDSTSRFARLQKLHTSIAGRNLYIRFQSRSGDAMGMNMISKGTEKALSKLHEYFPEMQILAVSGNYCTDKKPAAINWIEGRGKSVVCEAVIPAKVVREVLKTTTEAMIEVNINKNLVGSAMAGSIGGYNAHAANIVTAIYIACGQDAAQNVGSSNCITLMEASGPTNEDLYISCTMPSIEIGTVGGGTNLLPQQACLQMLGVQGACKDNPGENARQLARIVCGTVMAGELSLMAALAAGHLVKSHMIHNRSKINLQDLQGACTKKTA
Procedure: This example measured the effects of the TRF and its components on the hepatic enzymatic activity of HMG-CoA reductase and cholesterol 7α-hydroxylase. […] The amount of feed consumed ranged from 11.19-11.60 g per chicken and the feeding period was 4 weeks. The birds were fasted for a period of 36 hours and refed for 48 hours prior to sacrifice (at 0800 hours).

SMILES: CC(C)=CCC/C(C)=C/CC/C(C)=C/CCC1CCc2cc(O)ccc2O1 (stereo not shown) [P25, 3,4-dihydro-2-(4,8,12-trimethyltrideca-3'(E),7'(E),11'-trienyl)-2H-1-benzopyran-6-ol]
- reduction of total cholesterol concentration in the ham muscle ([1]; 50 ppm in diet): 30%
- reduction of total cholesterol concentration in the liver ([1]; 50 ppm in diet): 37%
- TOTAL CHOLESTEROL CONCENTRATION, Adipose Tissue ([1]; control diet + 50 ppm, 42 days): 89.54 mg/100 gm
- TOTAL CHOLESTEROL CONCENTRATION, Ham Muscle ([1]; control diet + 50 ppm, 42 days): 69.17 mg/100 gm
- TOTAL CHOLESTEROL CONCENTRATION, Heart ([1]; control diet + 50 ppm, 42 days): 51.53 mg/100 gm
- TOTAL CHOLESTEROL CONCENTRATION, Intestine ([1]; control diet + 50 ppm, 42 days): 176.67 mg/100 gm
- TOTAL CHOLESTEROL CONCENTRATION, Liver ([1]; control diet + 50 ppm, 42 days): 125.21 mg/100 gm
- TOTAL CHOLESTEROL CONCENTRATION, Loin Muscle ([1]; control diet + 50 ppm, 42 days): 99.04 mg/100 gm
- TOTAL CHOLESTEROL CONCENTRATION, Lung ([1]; control diet + 50 ppm, 42 days): 68.5 mg/100 gm
- TOTAL CHOLESTEROL, Adipose Tissue, percentage of control ([1]; control diet + 50 ppm, 42 days): 81.85%
- TOTAL CHOLESTEROL, Ham Muscle, percentage of control ([1]; control diet + 50 ppm, 42 days): 69.17%
- TOTAL CHOLESTEROL, Heart, percentage of control ([1]; control diet + 50 ppm, 42 days): 82.79%
- TOTAL CHOLESTEROL, Intestine, percentage of control ([1]; control diet + 50 ppm, 42 days): 81.98%
- TOTAL CHOLESTEROL, Liver, percentage of control ([1]; control diet + 50 ppm, 42 days): 62.11%
- TOTAL CHOLESTEROL, Loin Muscle, percentage of control ([1]; control diet + 50 ppm, 42 days): 81.85%
- TOTAL CHOLESTEROL, Lung, percentage of control ([1]; control diet + 50 ppm, 42 days): 66.98%
- TOTAL GLUCOSE CONCENTRATION, Adipose Tissue ([1]; control diet + 50 ppm, 42 days): 14.96 mg/100 gm
- TOTAL GLUCOSE CONCENTRATION, Ham Muscle ([1]; control diet + 50 ppm, 42 days): 53.05 mg/100 gm
- TOTAL GLUCOSE CONCENTRATION, Heart ([1]; control diet + 50 ppm, 42 days): 45.49 mg/100 gm
- TOTAL GLUCOSE CONCENTRATION, Intestine ([1]; control diet + 50 ppm, 42 days): 56.06 mg/100 gm
- TOTAL GLUCOSE CONCENTRATION, Liver ([1]; control diet + 50 ppm, 42 days): 362.99 mg/100 gm
- TOTAL GLUCOSE CONCENTRATION, Loin Muscle ([1]; control diet + 50 ppm, 42 days): 53.01 mg/100 gm
- TOTAL GLUCOSE CONCENTRATION, Lung ([1]; control diet + 50 ppm, 42 days): 60.96 mg/100 gm
- TOTAL GLUCOSE, Adipose Tissue, percentage of control ([1]; control diet + 50 ppm, 42 days): 81.57%
- TOTAL GLUCOSE, Ham Muscle, percentage of control ([1]; control diet + 50 ppm, 42 days): 98.57%
- TOTAL GLUCOSE, Heart, percentage of control ([1]; control diet + 50 ppm, 42 days): 92.37%
- TOTAL GLUCOSE, Intestine, percentage of control ([1]; control diet + 50 ppm, 42 days): 77.89%
- TOTAL GLUCOSE, Liver, percentage of control ([1]; control diet + 50 ppm, 42 days): 89.58%
- TOTAL GLUCOSE, Loin Muscle, percentage of control ([1]; control diet + 50 ppm, 42 days): 74.41%
- TOTAL GLUCOSE, Lung, percentage of control ([1]; control diet + 50 ppm, 42 days): 91.08%
- TOTAL TRIGLYCERIDES CONCENTRATION, Adipose Tissue ([1]; control diet + 50 ppm, 42 days): 259.62 mg/100 gm
- TOTAL TRIGLYCERIDES CONCENTRATION, Ham Muscle ([1]; control diet + 50 ppm, 42 days): 182.98 mg/100 gm
- TOTAL TRIGLYCERIDES CONCENTRATION, Heart ([1]; control diet + 50 ppm, 42 days): 140.51 mg/100 gm
- TOTAL TRIGLYCERIDES CONCENTRATION, Intestine ([1]; control diet + 50 ppm, 42 days): 345.37 mg/100 gm
- TOTAL TRIGLYCERIDES CONCENTRATION, Liver ([1]; control diet + 50 ppm, 42 days): 384.00 mg/100 gm
- TOTAL TRIGLYCERIDES CONCENTRATION, Loin Muscle ([1]; control diet + 50 ppm, 42 days): 189.18 mg/100 gm
- TOTAL TRIGLYCERIDES CONCENTRATION, Lung ([1]; control diet + 50 ppm, 42 days): 163.42 mg/100 gm
- TOTAL TRIGLYCERIDES, Adipose Tissue, percentage of control activity ([1]; control diet + 50 ppm, 42 days): 59.59%
- TOTAL TRIGLYCERIDES, Ham Muscle, percentage of control activity ([1]; control diet + 50 ppm, 42 days): 98.44%
- TOTAL TRIGLYCERIDES, Heart, percentage of control activity ([1]; control diet + 50 ppm, 42 days): 97.43%
- TOTAL TRIGLYCERIDES, Intestine, percentage of control activity ([1]; control diet + 50 ppm, 42 days): 96.57%
- TOTAL TRIGLYCERIDES, Liver, percentage of control activity ([1]; control diet + 50 ppm, 42 days): 89.44%
- TOTAL TRIGLYCERIDES, Loin Muscle, percentage of control activity ([1]; control diet + 50 ppm, 42 days): 86.12%
- TOTAL TRIGLYCERIDES, Lung, percentage of control activity ([1]; control diet + 50 ppm, 42 days): 95.03%
- reduction of enzymatic activity of HMG-CoA reductase (HMG-CoA reductase; 50 ppm in diet): about 28%
- HMG-CoA Reductase, percentage of control (HMG-CoA reductase; control diet + 50 ppm): 71.33%
